Experimental data as given in PMC9177597, “Structural basis of substrate recognition and translocation by human very long-chain fatty acid transporter ABCD1” (Nature Communications, 2022).
Positions count from the first letter of the chain named.

How the values were obtained:
Assay in all cases: substrate-stimulated ATPase assay (colorimetric Pi release)
Type in all cases: biochemical
Conditions in all cases: 5 μM C22:0-CoA, 2 mM ATP, 2 mM MgCl2, LMNG + CHS, pH 7.5, 37 °C
chABCD1 (chimeric ABCD1) [1] = biological target: T1, chABCD1 (chimeric ABCD1) (Homo sapiens, UniProt P33897, Y337F)
T1 construct: single polypeptide: N-terminal FLAG tag, PMP-4 residues 1-65 replacing human ABCD1 residues 1-63, then human ABCD1 64-745; HEK293F; homodimer; LMNG/CHS for assays, digitonin for cryo-EM; with PMP-4 (peroxisomal membrane protein related, ABCD1 homolog, Caenorhabditis elegans; N-terminal segment fused to the target chain)
T1 sequence (P33897 64-745 Y337F): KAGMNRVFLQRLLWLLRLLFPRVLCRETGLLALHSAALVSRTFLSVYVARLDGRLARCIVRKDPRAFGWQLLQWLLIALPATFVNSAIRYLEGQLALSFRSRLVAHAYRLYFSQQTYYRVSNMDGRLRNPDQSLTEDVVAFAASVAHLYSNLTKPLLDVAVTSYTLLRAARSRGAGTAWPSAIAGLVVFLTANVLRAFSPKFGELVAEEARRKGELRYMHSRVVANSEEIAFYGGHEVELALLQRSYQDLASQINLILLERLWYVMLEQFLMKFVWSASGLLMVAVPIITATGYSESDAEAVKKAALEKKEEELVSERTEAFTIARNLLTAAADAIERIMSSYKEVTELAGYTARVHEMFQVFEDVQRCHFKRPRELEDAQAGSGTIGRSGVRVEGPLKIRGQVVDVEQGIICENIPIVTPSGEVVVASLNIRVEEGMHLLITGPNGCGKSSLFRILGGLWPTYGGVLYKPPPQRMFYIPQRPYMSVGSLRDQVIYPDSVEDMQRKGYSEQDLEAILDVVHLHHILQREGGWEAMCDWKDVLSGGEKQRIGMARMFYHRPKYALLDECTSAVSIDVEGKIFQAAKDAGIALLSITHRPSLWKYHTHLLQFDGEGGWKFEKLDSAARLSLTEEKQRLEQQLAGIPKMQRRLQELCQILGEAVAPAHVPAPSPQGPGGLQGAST

chABCD1 (chimeric ABCD1) [2] = biological target: T2, chABCD1 (chimeric ABCD1) (Homo sapiens, UniProt P33897, R401Q)
T2 construct: single polypeptide: N-terminal FLAG tag, PMP-4 residues 1-65 replacing human ABCD1 residues 1-63, then human ABCD1 64-745; HEK293F; homodimer; LMNG/CHS for assays, digitonin for cryo-EM; with PMP-4 (peroxisomal membrane protein related, ABCD1 homolog, Caenorhabditis elegans; N-terminal segment fused to the target chain)
T2 sequence (P33897 64-745 R401Q): T1 sequence (P33897 64-745 Y337F) with F274Y, R338Q

chABCD1 (chimeric ABCD1) [3] = biological target: T3, chABCD1 (chimeric ABCD1) (Homo sapiens, UniProt P33897, K217A)
T3 construct: single polypeptide: N-terminal FLAG tag, PMP-4 residues 1-65 replacing human ABCD1 residues 1-63, then human ABCD1 64-745; HEK293F; homodimer; LMNG/CHS for assays, digitonin for cryo-EM; with PMP-4 (peroxisomal membrane protein related, ABCD1 homolog, Caenorhabditis elegans; N-terminal segment fused to the target chain)
T3 sequence (P33897 64-745 K217A): T1 sequence (P33897 64-745 Y337F) with K154A, F274Y

chABCD1 (chimeric ABCD1) [4] = biological target: T4, chABCD1 (chimeric ABCD1) (Homo sapiens, UniProt P33897, K336A)
T4 construct: single polypeptide: N-terminal FLAG tag, PMP-4 residues 1-65 replacing human ABCD1 residues 1-63, then human ABCD1 64-745; HEK293F; homodimer; LMNG/CHS for assays, digitonin for cryo-EM; with PMP-4 (peroxisomal membrane protein related, ABCD1 homolog, Caenorhabditis elegans; N-terminal segment fused to the target chain)
T4 sequence (P33897 64-745 K336A): T1 sequence (P33897 64-745 Y337F) with K273A, F274Y

CCCCCCCCCCCCCCCCCCCCCC(=O)SCCNC(=O)CCNC(=O)[C@H](O)C(C)(C)COP(=O)(O)OP(=O)(O)OC[C@H]1O[C@@H](n2cnc3c(N)ncnc32)[C@H](O)[C@@H]1OP(=O)(O)O [C22:0-CoA]
relative ATPase activity (chABCD1 (chimeric ABCD1) [1]): displayed significantly decreased substrate-simulated ATPase activity, compared to the wild-type | relative ATPase activity (chABCD1 (chimeric ABCD1) [2]): displayed significantly decreased substrate-simulated ATPase activity, compared to the wild-type | relative ATPase activity (chABCD1 (chimeric ABCD1) [3]): displayed significantly decreased substrate-simulated ATPase activity, compared to the wild-type | relative ATPase activity (chABCD1 (chimeric ABCD1) [4]): displayed significantly decreased substrate-simulated ATPase activity, compared to the wild-type
